Assay results as given in patent publication US7179821B2, “Method of treating of demyelinating diseases or conditions” (Aventis Pharmaceuticals Inc., priority 2001, dated 2007).
Where “and” joins values, the source holds several entries; their conditions need not be identical. Equal values may be shown once. Marks after values point to notes of the source that are not given here.

Assays:
[1] = tested on: mechanical hyperalgesia after nerve ligation; experiment: Neuropathic pain model, spinal nerve constriction, von Frey paw withdrawal threshold; format: in vivo, rat; details: 90 mg/kg sc, tested 45 minutes after dosing
Procedure: Adult male Sprague-Dawley rats received unilateral constriction of the L6 nerve to produce chronic nerve injury. Following recovery from surgery (3–7 days post operative) animals were tested for paw withdrawal threshold to mechanical stimuli applied to the affected paw. This was determined by the application of calibrated von Frey monofilaments to the plantar surface of each hindpaw. Only animals with a 50% decrease in withdrawal threshold in the ligated paw were employed in the study, and were randomly assigned to one of 6 groups: three groups receiving one of three doses of HP 184 (0.3, 3 and 20 mg/kg, po), a fourth group receiving a single dose of another compound referred to MDL (10 mg/kg, ip), a fifth group receiving gabapentin (90 mg/kg, sc), and a sixth group receiving vehicle only. Behavioral testing occurred 45 minutes following the gabapentin (90 mg/kg, sc), and 3 hours following the HP 184, MDL, and vehicle. A difference score between the ligated and non-ligated paw withdrawal thresholds is calculated for each animal, and these differences were subjected to ANOVA with group as the main factor. […] Analysis was between/within repeated measures ANOVA. […]

[2] = tested on: demyelinated area at the moderate compression injury site; experiment: Histological study of spinal cords, demyelinated area (luxol fast blue); format: in vivo, rat; details: HP184 0.3, 1 or 3 mg/kg po or 4-AP 0.6 mg/kg ip, days 35–42 after moderate crush
Procedure: A study to test whether the treatment with HP184 affected the amount of myelin in rats with moderate long term spinal cord crush injury when administered long after spinal cord injury.
The spinal cords from rats described above in the assessment were used for this study.
(50–60 mg/kg body weight, i.p.) and perfused transcardically—first with 100 mL 0.05M phosphate buffed saline (PBS) containing 0.1% heparin, followed by 300–500 mL of 4% paraformaldehyde (PFA). Segments T9 to L1 of the spinal cords were taken out, then cryo-protected in 30% sucrose solution and frozen at −70° C. in 10.24% polyvinyl alcohol and 4.26% polyethylene glycol.
A segment of each cord including the lesion site plus 10 mm rostral and caudal to the lesion site was embedded in Tissue Tek medium. Serial sections were cut longitudinally at 20 μm intervals on a cryostat. Every third section was stained with luxol fast blue for myelin. The evaluation was performed by observers blinded as to treatment, on coded slides. Sections were examined under a light microscope for the extent of demyelination (the area without luxol fast blue staining).
For determinations of the maximal demyelinated area of the cord, the whole section was digitized on photographs using a Zeiss microscope. The extent of demyelination was measured at the lesion center using a computerized Bioquant BQ-TCW98 image analysis progrem by an investigator who was blind to treatment group.
Statistical analysis was performed on a Macintosh computer using GB-Stat ppc 6.5.2. The histological results were analyzed by the Kruskal-Wallis nonparametric analysis of variance (ANOVA). Post hoc comparisons were made using Mann-Whitney U tests.

[3] = tested on: RuR-induced flaccid paralysis; experiment: Antagonism of ruthenium red (RuR)-induced flaccid paralysis, flagpole test; format: in vivo, mouse
Procedure: Method and Results: Groups of 4–5 mice (CD-1; Charles River; 25–35 grams) were separately but simultaneously injected ip with ruthenium red and vehicle (1% glacial acetic acid), ruthenium red and 4-AP, or ruthenium red and HP 184. The compound known as “8183” was also tested in this paradigm. Starting at 15 minutes after injections, mice were placed near a “flagpole” apparatus and their ability to support their own body weight (ie, to hold on to the flagpole and not fall) was recorded. Results were recorded as the number of mice that could support their own body weight versus the total number of mice tested. All experiments were performed between 2PM and 4:30PM.

SCI and MS patients = details: cited from earlier work
[4] = tested on: long-standing (25 days) spinal cord injury of minor intensity; experiment: Chronic crush experiment, 25-day old mild compression injury (1.6 mm), OFT score; format: in vivo, rat
Text: Normal spinal cord diameter is approximately 2.5 mm. This compression represents a moderate injury characterized by initial open field walking scores of 1.5–2.5 in the Open Field Walking Scale. […] The spinal cords of female rats were exposed to laminectomy or crush to a diameter of 1.6 mm. This represented a minor injury, and was designed to result in OFT scores of 4.0 after 25 days of no treatment. […] In this experiment, OFT scores were slightly higher (4.3–4.5), leaving only a small window for improvement. […] Consistent improvement was also observed after once a day ip 0.6 mg/kg 4-AP as well. The statistical differences were based upon the changes for each individual rat (each rat was its own control) using Mann-Whitney U-test. All the behavioral tests on day1, day2 and day3 were performed at 3 hours after gavage. There was no drug given on day3 (first day started to give drug was day 0).

[5] = tested on: moderate chronic (35 days post-injury) spinal cord crush; experiment: Long standing moderate spinal cord crush (35 days), OFT score; format: in vivo, rat
Text: A tabular representation of the results from both chronic spinal cord injury studies (drugs first administered 25 days after a mild spinal cord crush and 35 days after a moderate spinal cord crush) are shown in Table 5.
One hundred fifty adult female Wistar rats, 250–300 g weight, obtained from Charles River were housed in the McMaster University Health Sciences Centre (HSC) Central Animal Facilities (CAF) for at least one week. During that time they were exposed to the performance tests described below, to ensure they were familiar with them. Rats were handled daily for 2 weeks prior to surgery.
Rats were anesthetized using isoflurane (3–5%): O2 (1 L/min) in an appropriately equipped surgical suite in the CAF. Temgesic (0.03 mg/kg body weight, subcutaneously (SQ)) was administered prior to surgery for pain relief. Spinal cords were crushed (compressed) with a 3.5 mm wide modified coverslip forceps (Blight 1991, procedure revised by Rathbone laboratory). The forceps were closed to 1.4 mm for 15 sec, which produced injury level equivalent to the mid-level (moderate) outcome on the Gruner scale (1996). The compression injury was otherwise performed according to the procedure described by Blight (1991).
Changes in locomotor behaviour and segmental reflexes were assessed up to 5 weeks post injury. Animals were tested in an open field walking task, hind limb placement and foot orientation. The animals were evaluated on days 2, 7, 14, 21, 28 and 35 after surgery. By 35 days after surgery, almost no further spontaneous recovery occurs. Therefore treatment began on day 35.
HP184 was dissolved in sterilized (autoclaved) deionized reverse-osmosis water acidified with glacial acetic acid (0.1 ml acid per 10 ml of water). 4-AP (Sigma, molecular weight 94.12; Jankowska E. et al., 1982; Gruner et al., 1999) was dissolved in physiological saline (0.6 mg/kg b.w.) and was administered by i.p. injection. One group of rats (vehicle control-1) received by oral gavage vehicle. Behaviourial testing was done immediately prior to receiving the gavage and at 3 hours thereafter. Then, the rats were scarified on day 35. All the other rats received either HP184 by oral gavage (0.3, 1, or 3 mg/kg bw depending on the group) or 4-AP (0.6 mg/kg, i.p.) or vehicle (vehicle control-2) once a day on the 35 to 42 days after surgery. On these days behaviourial tests were done immediately prior to receiving the gavage at 3 and 24 hours thereafter. Then, the rats were perfused on day 43 after the last behaviourial testing.
Statistical analyses were performed on a Macintosh computer using GB-Stat ppc 6.5.2. The behavioral scores were analyzed by the Kruskal-Wallis nonparametric analysis of variance (ANOVA). Post hoc comparisons were made using Mann-Whitney U tests.

[6] = 0.3 mg/kg ip with RuR 30 mg/kg ip, 15 min
[7] = 0.3 mg/kg ip with RuR 30 mg/kg ip, 30 min
[8] = 0.3 mg/kg ip with RuR 30 mg/kg ip, 45 min
[9] = 0.6 mg/kg ip with RuR 30 mg/kg ip, 15 min
[10] = 0.6 mg/kg ip with RuR 30 mg/kg ip, 30 min
[11] = 0.6 mg/kg ip with RuR 30 mg/kg ip, 45 min

In the case of `NCC1(CC(=O)O)CCCCC1` [gabapentin, reference compound], the “mechanical hyperalgesia, difference of ligated minus normal paw withdrawal threshold, FIG. 10” value [1] was “clear reversal of hyperalgesia”.

For `Nc1ccncc1` [4-AP, 4-amino pyridine], the “myelinated / demyelinated area at the crush center, FIG. 7” value [2] was “significantly greater myelinated area than that of saline controls”, the “% of mice that could support their own body weight” value [3, 6] was “(88%)” and the “number of mice that could support their own body weight versus total tested” value [3, 6] was 22 out of 25. For the same molecule, the “% of mice that could support their own body weight” value [3, 7] was “(52%)”, the “number of mice that could support their own body weight versus total tested” value [3, 7] was 13 out of 25 and the “% of mice that could support their own body weight” value [3, 8] was “(48%)”. For the same molecule, the “number of mice that could support their own body weight versus total tested” value [3, 8] was 12 out of 25, the “% of mice that could support their own body weight” value [3, 9] was “(85.7%)” and the “number of mice that could support their own body weight versus total tested” value [3, 9] was 12 out of 14. The “% of mice that could support their own body weight” value [3, 10] was “(57.1)”, the “number of mice that could support their own body weight versus total tested” value [3, 10] was 8 out of 14 and the “% of mice that could support their own body weight” value [3, 11] was “(57.1%)”. The “number of mice that could support their own body weight versus total tested” value [3, 11] was 8 out of 14, the “antagonism of the flaccid paralysis induced by ip RuR (conclusion)” value ([3]; ip, doses of Table 3) was “can antagonize the flaccid paralysis” and the “doses at which restlessness, confusion and generalized tonic-clonic seizures have been reported” value (SCI and MS patients; Ball et al, 1979, Bever et al, 1994) was “higher than 0.8 mg/kg”. For the same molecule, the “serum level necessary for significant improvement” value (SCI and MS patients; MS patients, oral administration (Van Diemen et al, 1993)) was 33 to 75 ng/mL, the “serum level at which a grand mal seizure was reported” value (SCI and MS patients; human study (Bever et al, 1994)) was 104 ng/mL and the “OFT improvement compared to vehicle control (Mann-Whitney U-test)” value ([4]; 0.6 mg/kg ip once a day, p=0.0027) was “significant improvement at 90 min to 3 h and 12 h to day 2”. For the same molecule, the “OFT score 3 hours after last dose (Day 28, mild)” value ([4]; 0.6 mg/kg ip once a day, three consecutive daily doses) was 4.53 ± 0.02 and 4.53 ± .023, the “% possible improvement (highest score = 5), mild” value ([4]; 0.6 mpk ip) was 17.5%* and the “Delta of OFT score, Day 25 to Day 28 (mild)” value ([4]; 0.6 mpk ip) was “.10”. The “OFT score prior to dose (Day 25, mild)” value ([4]; group 0.6 mg/kg ip, baseline before dosing) was 4.43 ± 0.03 and 4.43 ± .030, the “motor recovery, Open Field Walking Test” value ([5]; 0.6 mg/kg ip, thirty-five days after moderate injury) was “similarly effective” and the “% possible improvement, moderate” value ([5]; 0.6 mpk ip) was 22.1%*. The “Delta of OFT score, Day 35 to Day 39 (moderate)” value ([5]; 0.6 mpk ip) was “.22”, the “OFT score Day 39 (moderate) 3 hrs after last dose” value ([5]; 0.6 mpk ip daily) was 4.17 ± .047 and the “open field locomotor ability (mean OFT scores) vs vehicle, FIGS. 6a and 6b” value ([5]; HP184 0.3, 1 or 3 mg/kg po or 4-AP 0.6 mg/kg ip once a day, days 35–42, treatment effect p<0.01) was “significantly different from that of control animals receiving vehicle”. The “OFT score Day 35 (moderate) prior” value ([5]; group 0.6 mpk ip, baseline before dosing) was 3.95 ± .084.
